Reference: ChEMBL document CHEMBL5724914, “Linking interpersonal differences in gut microbiota composition and drug biotransformation activity” (2024)

Key:
[1] = The drug is tested on Z-020 corresponding to rabbit gut metagenome with ENA study accession number: PRJEB37062 and ENA sample accession number: ERS12561819 for biotransformation under anaerobic condition. The drug concentrations were measured over 9 timepoints collected between 0 and 24 hours of incubation by liquid-chromatography-coupled mass spectrometry (LC–MS); settings: 2 µM
[2] = The drug is tested on Z-019 corresponding to rat gut metagenome with ENA study accession number: PRJEB37062 and ENA sample accession number: ERS12561818 for biotransformation under anaerobic condition. The drug concentrations were measured over 9 timepoints collected between 0 and 24 hours of incubation by liquid-chromatography-coupled mass spectrometry (LC–MS); settings: 2 µM
[3] = The drug is tested on Z-018 corresponding to pig gut metagenome with ENA study accession number: PRJEB37062 and ENA sample accession number: ERS12561817 for biotransformation under anaerobic condition. The drug concentrations were measured over 9 timepoints collected between 0 and 24 hours of incubation by liquid-chromatography-coupled mass spectrometry (LC–MS); settings: 2 µM
[4] = The drug is tested on Z-017 corresponding to mouse gut metagenome with ENA study accession number: PRJEB37062 and ENA sample accession number: ERS12561816 for biotransformation under anaerobic condition. The drug concentrations were measured over 9 timepoints collected between 0 and 24 hours of incubation by liquid-chromatography-coupled mass spectrometry (LC–MS); settings: 2 µM
[5] = The drug is tested on Z-016 corresponding to mouse gut metagenome with ENA study accession number: PRJEB37062 and ENA sample accession number: ERS12561815 for biotransformation under anaerobic condition. The drug concentrations were measured over 9 timepoints collected between 0 and 24 hours of incubation by liquid-chromatography-coupled mass spectrometry (LC–MS); settings: 2 µM
[6] = The drug is tested on Z-001 corresponding to mouse gut metagenome with ENA study accession number: PRJEB37062 and ENA sample accession number: ERS12561801 for biotransformation under anaerobic condition. The drug concentrations were measured over 9 timepoints collected between 0 and 24 hours of incubation by liquid-chromatography-coupled mass spectrometry (LC–MS); settings: 2 µM
[7] = The drug is tested on WLS-350 corresponding to human gut metagenome with ENA study accession number: PRJEB37062 and ENA sample accession number: ERS12561789 for biotransformation under anaerobic condition. The drug concentrations were measured over 9 timepoints collected between 0 and 24 hours of incubation by liquid-chromatography-coupled mass spectrometry (LC–MS); settings: 2 µM
[8] = The drug is tested on WLS-220 corresponding to human gut metagenome with ENA study accession number: PRJEB37062 and ENA sample accession number: ERS12561769 for biotransformation under anaerobic condition. The drug concentrations were measured over 9 timepoints collected between 0 and 24 hours of incubation by liquid-chromatography-coupled mass spectrometry (LC–MS); settings: 2 µM
[9] = The drug is tested on WLS-082 corresponding to human gut metagenome with ENA study accession number: PRJEB37062 and ENA sample accession number: ERS12561751 for biotransformation under anaerobic condition. The drug concentrations were measured over 9 timepoints collected between 0 and 24 hours of incubation by liquid-chromatography-coupled mass spectrometry (LC–MS); settings: 2 µM
[10] = The drug is tested on WLS-039 corresponding to human gut metagenome with ENA study accession number: PRJEB37062 and ENA sample accession number: ERS12561746 for biotransformation under anaerobic condition. The drug concentrations were measured over 9 timepoints collected between 0 and 24 hours of incubation by liquid-chromatography-coupled mass spectrometry (LC–MS); settings: 2 µM
[11] = human gut metagenome, 24 h, 2 µM
[12] = human gut metagenome, 24 h, 2 µM; remark: listed apart in the source
[13] = human gut metagenome, 24 h, 2 µM; remark: listed apart in the source
[14] = human gut metagenome, 24 h, 2 µM; remark: listed apart in the source
[15] = human gut metagenome, 24 h, 2 µM; remark: listed apart in the source
[16] = human gut metagenome, 24 h, 2 µM; remark: listed apart in the source
[17] = human gut metagenome, 24 h, 2 µM; remark: listed apart in the source
[18] = human gut metagenome, 24 h, 2 µM; remark: listed apart in the source
[19] = human gut metagenome, 24 h, 2 µM; remark: listed apart in the source
[20] = The drug is tested on Z-021 corresponding to metagenome with ENA study accession number: PRJEB37062 and ENA sample accession number: ERS12561820 for biotransformation under anaerobic condition. The drug concentrations were measured over 9 timepoints collected between 0 and 24 hours of incubation by liquid-chromatography-coupled mass spectrometry (LC–MS); settings: 2 µM
Further: call rule not given here.

SMILES | Bacterial Biotransformation [1] | Bacterial Biotransformation [2] | Bacterial Biotransformation [3] | Bacterial Biotransformation [4] | Bacterial Biotransformation [5] | Bacterial Biotransformation [6] | Bacterial Biotransformation [7] | Bacterial Biotransformation [8] | Bacterial Biotransformation [9] | Bacterial Biotransformation [10] | Bacterial Biotransformation [11] | Bacterial Biotransformation [12] | Bacterial Biotransformation [13] | Bacterial Biotransformation [14] | Bacterial Biotransformation [15] | Bacterial Biotransformation [16] | Bacterial Biotransformation [17] | Bacterial Biotransformation [18] | Bacterial Biotransformation [19] | Bacterial Biotransformation [20]
CCC1(c2ccc(N)cc2)CCC(=O)NC1=O (stereo unspecified) [AMINOGLUTETHIMIDE] | Compound NOT metabolized | Compound NOT metabolized | Compound metabolized | Compound NOT metabolized | Compound NOT metabolized | Compound NOT metabolized | Compound NOT metabolized | Compound NOT metabolized | Compound NOT metabolized | Compound NOT metabolized | Compound NOT metabolized | Compound NOT metabolized | Compound NOT metabolized | Compound NOT metabolized | Compound NOT metabolized | Compound NOT metabolized | Compound NOT metabolized | Compound NOT metabolized | Compound NOT metabolized | –
CN1CCc2cccc3c2[C@H]1Cc1ccc(O)c(O)c1-3 [APOMORPHINE] | – | – | – | Compound NOT metabolized | Compound NOT metabolized | Compound NOT metabolized | Compound NOT metabolized | Compound NOT metabolized | – | Compound NOT metabolized | Compound NOT metabolized | Compound NOT metabolized | Compound NOT metabolized | Compound NOT metabolized | Compound NOT metabolized | – | Compound NOT metabolized | Compound NOT metabolized | Compound NOT metabolized | Compound NOT metabolized
C#C[C@]1(O)CC[C@H]2[C@@H]3CCC4=Cc5oncc5C[C@]4(C)[C@H]3CC[C@@]21C [DANAZOL] | Compound NOT metabolized | – | – | – | Compound NOT metabolized | – | – | Compound metabolized | Compound metabolized | Compound metabolized | – | Compound metabolized | – | – | Compound metabolized | – | – | – | – | Compound metabolized
O=C1[C@H](CC[C@H](O)c2ccc(F)cc2)[C@@H](c2ccc(O)cc2)N1c1ccc(F)cc1 [EZETIMIBE] | Compound NOT metabolized | Compound NOT metabolized | Compound NOT metabolized | Compound NOT metabolized | Compound NOT metabolized | Compound NOT metabolized | Compound NOT metabolized | Compound metabolized | Compound metabolized | Compound NOT metabolized | Compound NOT metabolized | Compound NOT metabolized | Compound NOT metabolized | Compound NOT metabolized | Compound metabolized | Compound NOT metabolized | Compound NOT metabolized | Compound NOT metabolized | Compound NOT metabolized | –
CNC(=C[N+](=O)[O-])NCCSCc1csc(CN(C)C)n1 [NIZATIDINE] | Compound NOT metabolized | – | Compound NOT metabolized | – | Compound NOT metabolized | Compound NOT metabolized | Compound NOT metabolized | Compound NOT metabolized | Compound NOT metabolized | Compound NOT metabolized | Compound NOT metabolized | Compound NOT metabolized | Compound metabolized | Compound NOT metabolized | Compound NOT metabolized | Compound NOT metabolized | Compound metabolized | Compound metabolized | Compound NOT metabolized | Compound NOT metabolized
Cc1nc2n(c(=O)c1CCN1CCC(c3noc4cc(F)ccc34)CC1)CCCC2O (stereo unspecified) [PALIPERIDONE] | Compound NOT metabolized | – | Compound NOT metabolized | Compound NOT metabolized | Compound NOT metabolized | Compound NOT metabolized | Compound metabolized | Compound metabolized | – | Compound metabolized | Compound metabolized | Compound metabolized | Compound metabolized | Compound metabolized | Compound metabolized | Compound NOT metabolized | Compound metabolized | Compound metabolized | Compound metabolized | Compound metabolized
Nc1ccc(/N=N/c2ccccc2)c(N)n1 [PHENAZOPYRIDINE] | – | Compound metabolized | Compound metabolized | Compound metabolized | Compound metabolized | Compound metabolized | Compound metabolized | Compound metabolized | Compound metabolized | Compound metabolized | Compound metabolized | Compound metabolized | Compound metabolized | Compound metabolized | Compound metabolized | Compound metabolized | Compound metabolized | Compound metabolized | Compound metabolized | Compound metabolized
